Measurements from ChEMBL document CHEMBL1201862, “PubChem BioAssay data set” (2004).
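All cell lines were grown in 96-well plates and treated with compound for 48 hours. GI50 marks 50% less growth.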 Calls of active or inactive are those of the source. No stated cut-off is given here; in the data, active = GI50 up to about 1.1 µM and inactive = higher.

Legend:
Test in all cases: DTP human tumour cell line panel, 48 h
[1] = test system: A498
[2] = test system: ACHN
[3] = test system: CCRF-CEM
[4] = test system: DMS-273
[5] = test system: HCC 2998
[6] = test system: HL-60
[7] = test system: K562
[8] = test system: Malme-3M
[9] = test system: NCI-H226
[10] = test system: NCI-H460
[11] = test system: SK-MEL-2
[12] = test system: SNB-19
[13] = test system: SNB-78
[14] = test system: TK-10
[15] = test system: UACC-62
[16] = test system: UO-31
[17] = test system: DU-145
[18] = test system: Hs-578T
[19] = test system: MDA-N
[20] = test system: NCI/ADR-RES

Compound	GI50 [1]	GI50 [2]	GI50 [3]	GI50 [4]	GI50 [5]	GI50 [6]	GI50 [7]	GI50 [8]	GI50 [9]	GI50 [10]	GI50 [11]	GI50 [12]	GI50 [13]	GI50 [14]	GI50 [15]	GI50 [16]	GI50 [17]	GI50 [18]	GI50 [19]	GI50 [20]
BrC1(Br)C2/C=C\CCCCC21 (stereo unspecified)	> 100 µM (inactive)	> 100 µM (inactive)	> 100 µM (inactive)	> 100 µM (inactive)	> 100 µM (inactive)	> 100 µM (inactive)	> 100 µM (inactive)	> 100 µM (inactive)	> 100 µM (inactive)	> 100 µM (inactive)	> 100 µM (inactive)	> 100 µM (inactive)	> 100 µM (inactive)	> 100 µM (inactive)						
Cc1ccc(Oc2ccc(C)cc2N)cc1	> 100 µM (inactive)		41.6 µM (inactive)	75 µM (inactive)	> 100 µM (inactive)	33.9 µM (inactive)	60.8 µM (inactive)	> 100 µM (inactive)	48.6 µM (inactive)	> 100 µM (inactive)	> 100 µM (inactive)	> 100 µM (inactive)	75.5 µM (inactive)	> 100 µM (inactive)	> 100 µM (inactive)	34.8 µM (inactive)				
NCCSc1nc(N)c2ncn(C3OC(CO)C(O)C3O)c2n1 (stereo unspecified)	> 100 µM (inactive)	> 100 µM (inactive)	> 100 µM (inactive)	> 100 µM (inactive)	> 100 µM (inactive)	> 100 µM (inactive)	> 100 µM (inactive)	> 100 µM (inactive)	> 100 µM (inactive)	> 100 µM (inactive)	> 100 µM (inactive)	> 100 µM (inactive)	> 100 µM (inactive)	> 100 µM (inactive)	> 100 µM (inactive)	> 100 µM (inactive)				
O=C1C(Cl)=C(N2CCN(C3=C(Cl)C(=O)c4ccccc4C3=O)CC2)C(=O)c2ccccc21	3.49 µM (inactive)	1.64 µM (inactive)	0.162 µM (active)	2.14 µM (inactive)	2.78 µM (inactive)	0.0841 µM (active)	0.121 µM (active)	1.91 µM (inactive)	4.25 µM (inactive)	3.54 µM (inactive)	1.74 µM (inactive)	14.9 µM (inactive)	0.61 µM (active)	1.96 µM (inactive)	1.79 µM (inactive)	1.45 µM (inactive)	4.91 µM (inactive)	2.22 µM (inactive)	1.86 µM (inactive)	1.92 µM (inactive)
COc1ccc2c(NCCCCCCNc3c4ccccc4nc4cc(OC)ccc34)c3ccccc3nc2c1	0.516 µM (active)	0.163 µM (active)	0.0447 µM (active)	0.0313 µM (active)	0.135 µM (active)	0.0923 µM (active)	0.0334 µM (active)	0.427 µM (active)	0.212 µM (active)	0.0272 µM (active)	0.364 µM (active)	0.218 µM (active)	0.12 µM (active)	0.385 µM (active)	0.263 µM (active)	12.9 µM (inactive)	0.204 µM (active)	0.219 µM (active)	0.142 µM (active)	2.72 µM (inactive)
Cc1ccc(C(=O)N(C(C)C)C(C)C)cc1/N=N/N(C)C		> 75.5 µM (inactive)	> 10 µM (inactive)	> 100 µM (inactive)	> 100 µM (inactive)	29.7 µM (inactive)	38.8 µM (inactive)	84.7 µM (inactive)	> 100 µM (inactive)	> 100 µM (inactive)	> 100 µM (inactive)	> 100 µM (inactive)	35.9 µM (inactive)	> 100 µM (inactive)	> 80.5 µM (inactive)	> 61.4 µM (inactive)	> 100 µM (inactive)	96.6 µM (inactive)	> 100 µM (inactive)	> 100 µM (inactive)
COC(=O)C(=O)C(C(C)=O)C(=O)NCc1ccccc1 (stereo unspecified)	> 100 µM (inactive)	> 100 µM (inactive)	83.2 µM (inactive)	> 100 µM (inactive)	> 100 µM (inactive)	> 100 µM (inactive)	> 100 µM (inactive)	> 100 µM (inactive)	> 100 µM (inactive)	> 100 µM (inactive)	> 100 µM (inactive)	> 100 µM (inactive)	> 100 µM (inactive)	> 100 µM (inactive)	> 100 µM (inactive)	> 100 µM (inactive)				
CC1(c2ccc(F)cc2)C2C(=O)NC(=O)C1C(=O)NC2=O (stereo unspecified)	> 100 µM (inactive)	> 100 µM (inactive)	> 100 µM (inactive)	> 100 µM (inactive)	> 100 µM (inactive)	> 100 µM (inactive)	> 100 µM (inactive)	> 100 µM (inactive)	> 100 µM (inactive)	> 100 µM (inactive)	> 100 µM (inactive)	> 100 µM (inactive)	> 100 µM (inactive)	> 100 µM (inactive)	> 100 µM (inactive)	> 100 µM (inactive)				
CCc1cccc(C(C)CC)c1NC(=O)C(=O)Cc1nc2ccccc2o1 (stereo unspecified)	> 50 µM (inactive)	> 50 µM (inactive)	> 50 µM (inactive)	> 50 µM (inactive)	> 50 µM (inactive)	> 50 µM (inactive)	> 50 µM (inactive)	> 50 µM (inactive)	3.82 µM (inactive)	> 50 µM (inactive)	> 50 µM (inactive)	> 50 µM (inactive)	> 50 µM (inactive)	> 50 µM (inactive)	> 50 µM (inactive)	> 50 µM (inactive)				
CCC1CN2CCc3c([nH]c4ccccc34)C2C[C@@H]1CC(=O)N(C)C (stereo partly specified)	> 100 µM (inactive)	> 100 µM (inactive)	> 100 µM (inactive)	> 100 µM (inactive)	> 100 µM (inactive)	> 100 µM (inactive)	> 100 µM (inactive)	> 100 µM (inactive)	> 100 µM (inactive)	> 100 µM (inactive)	> 100 µM (inactive)	> 100 µM (inactive)	> 100 µM (inactive)	> 100 µM (inactive)		> 100 µM (inactive)				
COC(=O)CCC(NC(=S)N/N=C(\C)c1cnc2ccccc2n1)C(=O)OC (stereo unspecified)	92.9 µM (inactive)	20.6 µM (inactive)	3.29 µM (inactive)	38.5 µM (inactive)	32.1 µM (inactive)	2.33 µM (inactive)	10.1 µM (inactive)	41.3 µM (inactive)	41.8 µM (inactive)	45.9 µM (inactive)	56.8 µM (inactive)	> 100 µM (inactive)	> 100 µM (inactive)	> 100 µM (inactive)	16.9 µM (inactive)	27.4 µM (inactive)				
CC1=C(C(=O)Nc2cccc(Cl)c2)C(c2ccccc2F)C(C(=O)Nc2cccc(Cl)c2)=C(C)N1	13.9 µM (inactive)	9.98 µM (inactive)	4.61 µM (inactive)	11.9 µM (inactive)	7.57 µM (inactive)	3.78 µM (inactive)	4.79 µM (inactive)	15.8 µM (inactive)	11.3 µM (inactive)	6.7 µM (inactive)	11.6 µM (inactive)	19.2 µM (inactive)	18.7 µM (inactive)	21.5 µM (inactive)		7.94 µM (inactive)				
CC1=NN(c2ccccc2)C(=O)C1=C1SCCS1	> 77.1 µM (inactive)	97.1 µM (inactive)	29.2 µM (inactive)	> 58.3 µM (inactive)	> 87.1 µM (inactive)	> 40 µM (inactive)	43.6 µM (inactive)	> 67.6 µM (inactive)	> 64 µM (inactive)	50.7 µM (inactive)	> 100 µM (inactive)	> 86.7 µM (inactive)	> 100 µM (inactive)	> 55.1 µM (inactive)	> 62.2 µM (inactive)	37.9 µM (inactive)				
COc1ccc(/C=C\c2cc(OC)c3c(c2)OCO3)c(O)c1O	8.3 µM (inactive)	11.2 µM (inactive)	2.98 µM (inactive)	20 µM (inactive)	21.5 µM (inactive)	2.8 µM (inactive)	4.14 µM (inactive)	13.4 µM (inactive)	16.1 µM (inactive)	5.37 µM (inactive)	8.53 µM (inactive)	4.74 µM (inactive)	3.94 µM (inactive)	24.9 µM (inactive)	3.33 µM (inactive)	5.87 µM (inactive)				
CCOP(=O)(OCC)C(C(=O)OC)C(=O)C(=O)Nc1c(C)cc(Br)cc1C (stereo unspecified)	> 100 µM (inactive)	> 100 µM (inactive)	> 100 µM (inactive)	> 100 µM (inactive)	> 100 µM (inactive)	> 100 µM (inactive)	> 100 µM (inactive)	> 100 µM (inactive)	> 100 µM (inactive)	> 100 µM (inactive)	> 100 µM (inactive)	> 100 µM (inactive)	> 100 µM (inactive)	> 100 µM (inactive)	> 100 µM (inactive)	> 100 µM (inactive)				
